Measured values from PubChem BioAssay (NCI).
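The compound was tested at five concentrations on cells cultured in 96-well plates, with a 48-hour exposure period. GI50 = concentration required for 50% inhibition of growth. TGI marks complete inhibition of growth.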

Experiments:
Assay in all cases: NCI-60 cell line screen, 48 h
[1] = test system: SNB-19 CNS
[2] = test system: SK-MEL-5 melanoma
[3] = test system: HCT-116 colon
[4] = test system: OVCAR-5 ovarian
[5] = test system: SF-539 CNS
[6] = test system: SF-295 CNS
[7] = test system: CCRF-CEM leukemia
[8] = test system: UACC-62 melanoma
[9] = test system: DU-145 prostate
[10] = test system: OVCAR-8 ovarian
[11] = test system: HS 578T breast
[12] = test system: SF-268 CNS
[13] = test system: HOP-62 NSCLC
[14] = test system: SR leukemia
[15] = test system: RPMI-8226 leukemia
[16] = test system: HT29 colon
[17] = test system: HOP-92 NSCLC
[18] = test system: MOLT-4 leukemia
[19] = test system: MDA-N
[20] = test system: OVCAR-4 ovarian
[21] = test system: NCI-H522 lung
[22] = test system: OVCAR-3 ovarian
[23] = test system: NCI-H226 lung
[24] = test system: COLO 205 colon
[25] = test system: KM12 colon
[26] = test system: SK-MEL-28 melanoma
[27] = test system: HL-60(TB) leukemia
[28] = test system: HCT-15 colon
[29] = test system: NCI-H23 lung
[30] = test system: MCF7 breast
[31] = test system: SW-620 colon
[32] = test system: PC-3 prostate
[33] = test system: NCI-H460 lung
[34] = test system: LOX IMVI melanoma
[35] = test system: ACHN renal
[36] = test system: SK-MEL-2 melanoma
[37] = test system: TK-10 renal
[38] = test system: SNB-75 CNS
[39] = test system: HCC-2998 colon
[40] = test system: A549 NSCLC
[41] = test system: UACC-257 melanoma
[42] = test system: IGROV1 ovarian
[43] = test system: CAKI-1 renal
[44] = test system: MALME-3M melanoma
[45] = test system: BT-549 breast
[46] = test system: T-47D breast
[47] = test system: MDA-MB-435
[48] = test system: SN12C renal
[49] = test system: NCI/ADR-RES ovarian
[50] = test system: RXF 393 renal
[51] = test system: U251 CNS
[52] = test system: M14 melanoma
[53] = test system: A498 renal
[54] = test system: EKVX NSCLC
[55] = test system: K-562 leukemia
[56] = test system: UO-31 renal
[57] = test system: MDA-MB-231 breast
[58] = test system: SK-OV-3 ovarian
[59] = test system: 786-0 renal
[60] = test system: RXF-631 renal
[61] = test system: HOP-18 NSCLC
[62] = test system: DLD-1 colon
[63] = test system: KM20L2 colon
[64] = test system: LXFL 529 NSCLC
[65] = test system: M19-MEL melanoma
[66] = test system: DMS 273 small cell lung

SMILES: O=C1Cc2c(-c3ccccc3)cc(-c3cccc(Cl)c3)nc2-c2ccccc2N1
- TGI [1]: 3.59 µM
- TGI [2]: > 48.7 µM
- TGI [3]: 4.13 µM
- TGI [4]: 30.3 µM
- TGI [5]: > 29.9 µM
- TGI [6]: 28.6 µM
- TGI [7]: 50.9 µM
- TGI [8]: 12.2 µM
- TGI [9]: 11.8 µM
- TGI [10]: 5.4 µM
- TGI [11]: 9.85 µM
- TGI [12]: 14 µM
- TGI [13]: 4.12 µM
- TGI [14]: > 100 µM
- TGI [15]: > 93 µM
- TGI [16]: 5.17 µM
- TGI [17]: 5.42 µM
- TGI [18]: > 90.4 µM
- TGI [19]: 31.6 µM
- TGI [20]: 5.71 µM
- TGI [21]: 5.1 µM
- TGI [22]: 6.84 µM
- TGI [23]: 17.7 µM
- TGI [24]: > 58.3 µM
- TGI [25]: > 75.3 µM
- TGI [26]: 25.8 µM
- TGI [27]: > 100 µM
- TGI [28]: 17.6 µM
- TGI [29]: 16.8 µM
- TGI [30]: > 22.6 µM
- TGI [31]: > 100 µM
- TGI [32]: 23.2 µM
- TGI [33]: 3.71 µM
- TGI [34]: 7.28 µM
- GI50 [35]: 1.15 µM
- TGI [35]: 5.63 µM
- TGI [36]: 24.4 µM
- TGI [37]: 3.62 µM
- TGI [38]: 6.04 µM
- TGI [39]: 7.76 µM
- TGI [40]: 9.25 µM
- TGI [41]: 24.1 µM
- TGI [42]: 6.45 µM
- TGI [43]: 5.06 µM
- TGI [44]: 13.3 µM
- TGI [45]: 22.1 µM
- TGI [46]: 6.01 µM
- TGI [47]: > 59.9 µM
- TGI [48]: 16.2 µM
- TGI [49]: 7.46 µM
- TGI [50]: 6.28 µM
- TGI [51]: 3.12 µM
- TGI [52]: > 63.9 µM
- TGI [53]: 15.7 µM
- TGI [54]: 12.6 µM
- TGI [55]: > 40.3 µM
- TGI [56]: 11.2 µM
- TGI [57]: 5.49 µM
- TGI [58]: 9.49 µM
- GI50 [59]: 0.977 µM
- TGI [59]: 2.42 µM

SMILES: COc1ccc2c(C3(O)CCNCC3)c[nH]c2c1
- TGI [1]: > 100 µM
- TGI [60]: > 100 µM
- TGI [2]: > 100 µM
- TGI [4]: > 100 µM
- TGI [5]: > 100 µM
- TGI [6]: > 100 µM
- TGI [7]: > 100 µM
- TGI [8]: > 100 µM
- TGI [61]: > 100 µM
- TGI [10]: > 100 µM
- TGI [62]: > 100 µM
- TGI [12]: > 100 µM
- TGI [13]: > 100 µM
- TGI [15]: > 100 µM
- TGI [16]: > 100 µM
- TGI [17]: > 100 µM
- TGI [18]: > 100 µM
- TGI [20]: > 100 µM
- TGI [63]: > 100 µM
- TGI [21]: > 100 µM
- TGI [22]: > 100 µM
- TGI [24]: > 100 µM
- TGI [25]: > 100 µM
- TGI [26]: > 100 µM
- TGI [27]: > 100 µM
- TGI [28]: > 100 µM
- TGI [29]: > 100 µM
- TGI [31]: > 100 µM
- TGI [64]: > 100 µM
- TGI [33]: > 100 µM
- TGI [34]: > 100 µM
- TGI [35]: > 100 µM
- TGI [36]: > 100 µM
- TGI [37]: > 100 µM
- TGI [38]: > 100 µM
- TGI [39]: > 100 µM
- TGI [40]: > 100 µM
- TGI [42]: > 100 µM
- TGI [43]: > 100 µM
- TGI [44]: > 100 µM
- TGI [65]: > 100 µM
- TGI [48]: > 100 µM
- TGI [50]: > 100 µM
- TGI [51]: > 100 µM
- TGI [52]: > 100 µM
- TGI [66]: > 100 µM
- TGI [54]: > 100 µM
- TGI [55]: > 100 µM
- TGI [56]: > 100 µM
- TGI [58]: > 100 µM
- TGI [59]: > 100 µM
